According to article PMC4424558, “Antimicrobial and antioxidant flavonoids from the leaves of Oncoba spinosa Forssk. (Salicaceae)” (BMC Complementary and Alternative Medicine, 2015):
Values after ≈ are worked out from the molar mass of the structure shown. Like-named read-outs stand apart in the source and are kept apart here.

How the values were obtained:
[1] = Trolox equivalent antioxidant capacity (TEAC) assay; assay type: biochemical; conditions: ABTS/laccase, 420 nm, 230 s; 20 μg/ml isolated compounds, 10-400 μg/ml MeOH extract; gallic acid equivalents
Method: The TEAC test was done as previously described with slight modifications. In a quartz cuvette, to 950 μl acetate buffer (pH = 5.0, 100 mM), the following were added: 20 μl laccase (1 mM stock solution), 20 μl test sample, 10 μl ABTS (2,2′-azinobis(3-ethylbenzothiazoline-6-sulfonic acid)) (74 mM stock solution). The laccase were purified from Sclerotinia sclerotiorum according to the protocol described. The sample concentrations in the assay mixture were 400, 200, 100, 10 μg/ml for the MeOH extract and 20 μg/ml for the isolated compounds. The content of the generated ABTS^●+ radical was measured at 420 nm after 230 s reaction time and was converted to gallic acid equivalents by the use of a calibration curve (Pearson’s correlation coefficient: r = 0.998) constructed with 0, 4, 10, 14, 28, 56, 84 μM gallic acid standards rather than Trolox. Experiments were done in triplicate.

[2] = test system: Candida albicans ATCC 9002; test: Broth microdilution MIC/MFC against Candida albicans ATCC 9002; assay type: cell-based; conditions: for MIC: 48 h
Method: (§1) The studied microorganisms were both reference (from the American Type Culture Collection) and clinical (from Pasteur Institute Paris, France) strains of Enterobacter aerogenes, Escherichia coli, Klebsiella pneumoniae, Candida albicans, and Cryptococcus neoformans. Also, included were two clinical isolates of Candida parapsilosis and Staphylococcus aureus collected from Pasteur Centre (Yaoundé-Cameroon). The bacterial and fungal species were grown at 37°C and maintained on nutrient agar (NA, Conda, Madrid, Spain) and Sabouraud Dextrose Agar (SDA, Conda) slants respectively.
(§2) The inocula of yeasts and bacteria were prepared from overnight cultures by picking numerous colonies and suspending them in sterile saline (NaCl) solution (0.90%). Absorbance was read at 530 nm for yeasts or at 600 nm for bacteria and adjusted with the saline solution to match that of a 0.50 McFarland standard solution. From the prepared microbial solutions, other dilutions with saline solution were prepared to give a final concentration of 10^6 yeast cells/ml and 10^6 CFU/ml for bacteria.
(§3) The antimicrobial activity was investigated by determining the minimum inhibitory concentrations (MICs), minimum bactericidal concentrations (MBCs) and minimum fungicidal concentrations (MFCs).
(§4) MICs were determined by broth micro dilution. Stock solutions of the tested samples were prepared in 10% v/v aqueous dimethylsulfoxide (DMSO) solution (Fisher chemicals, Strasbourg, France) at concentration of 4096 μg/ml. This was two-fold serially diluted in Mueller-Hinton Broth (MHB) for bacteria and Sabouraud Dextrose Broth (SDB) for fungi to obtain a concentration range of 2048 to 0.25 μg/ml. For every experiment, a sterility check (10% aqueous DMSO and medium), negative control (10% aqueous DMSO, medium and inoculum) and positive control (10% aqueous DMSO, medium, inoculum and water-soluble antibiotics) were included. One hundred microliters of each concentration was introduced into a well (96-wells microplate) containing 90 μl of SDB or MHB and 10 μl of inoculum was added to obtain a final concentration range of 4096 to 0.125 μg/ml. The plates were covered with a sterile lid, and incubated on the shaker at 37°C for 24 h (bacteria) and 48 h (yeasts). MICs were assessed visually after the corresponding incubation period and were taken as the lowest sample concentration at which there was no growth or virtually no growth. The assay was repeated thrice.
(§5) The lowest concentration that yielded no growth after the sub-culturing was taken as the MBCs or MFCs. Chloramphenicol (Sigma-Aldrich, Steinheim, Germany) for bacteria and nystatin (Sigma-Aldrich, Steinheim, Germany) for yeasts were used as positive controls.

[3] = test system: Klebsiella pneumoniae ATCC11296; test: Broth microdilution MIC/MBC against Klebsiella pneumoniae ATCC11296; assay type: cell-based; conditions: for MIC: 37°C, 24 h
Method: as §1, §2, §3, §4, §5

[4] = test system: Escherichia coli ATCC8739; test: Broth microdilution MIC/MBC against Escherichia coli ATCC8739; assay type: cell-based; conditions: for MIC: 37°C, 24 h
Method: as §1, §2, §3, §4, §5

[5] = test system: Enterobacter aerogenes ATCC13048; test: Broth microdilution MIC/MBC against Enterobacter aerogenes ATCC13048; assay type: cell-based; conditions: for MBC / MIC: Klebsiella aerogenes; for MIC: 37°C, 24 h
Method: as §1, §2, §3, §4, §5

Candida parapsilosis = test: Broth microdilution MIC/MFC against Candida parapsilosis; assay type: cell-based; conditions: Candida parapsilosis clinical isolate; for MIC: 37°C, 48 h
Method: as §1, §2, §3, §4, §5

[6] = test system: Cryptococcus neoformans IP 90526; test: Broth microdilution MIC/MFC against Cryptococcus neoformans IP 90526; assay type: cell-based; conditions: for MIC: 48 h
Method: as §1, §2, §3, §4, §5

Staphylococcus aureus = test: Broth microdilution MIC/MBC against Staphylococcus aureus; assay type: cell-based; conditions: Staphylococcus aureus clinical isolate; for MIC: 37°C, 24 h
Method: as §1, §2, §3, §4, §5

[7] = test system: bacterial and fungal species; test: Broth microdilution, all studied microorganisms (panel summary); assay type: cell-based; conditions: for studied microorganisms on which inhibitory effects were noted: out of 7 studied microorganisms
Method: as §1, §2, §3, §4, §5

[8] = DPPH free radical scavenging assay; assay type: biochemical; conditions: 30 min, room temperature, 517 nm
Method: The free radical scavenging activity of the MeOH extract as well as some of its isolated compounds was evaluated according to described methods with slight modifications. Briefly, the test samples, prior dissolved in DMSO (SIGMA) beforehand, were mixed with a 20 mg/l 2,2-diphenyl-1-picryl-hydrazyl (DPPH) methanol solution, to give final concentrations of 10, 50, 100, 500 and 1000 μg/ml. After 30 min at room temperature, the absorbance values were measured at 517 nm and converted into percentage of antioxidant activity. L-ascorbic acid was used as a standard control. The percentage of decolouration of DPPH (%) was calculated as follows: %decolourationofDPPH=Absorbanceofcontrol−Absorbanceoftestsample)×100/Absorbanceofcontrol
The percentage of decolouration of DPPH (%) was plotted against the test sample. Also, the percentage of decolouration of DPPH was converted in probits. The probit values were plotted against the logarithmic values of concentrations of the test samples and a linear regression curve was established in order to calculate the EC50 (μg/ml), which is the amount of sample necessary to decrease by 50% the absorbance of DPPH [11]. All the analyses were carried out in triplicate.

fungi = test: Broth microdilution, fungal strains (panel summary); assay type: cell-based; conditions: for MIC (range over fungi): range over the fungal strains
Method: as §1, §2, §3
as §4, with “One hundred microliters of each concentration was introduced into a well (96-wells microplate) containing 90 μl of SDB or MHB and 10 μl of inoculum was added to obtain a final concentration range of 4096 to 0.125 μg/ml. The plates were covered with a sterile lid, and incubated on the shaker at 37°C for 24 h (bacteria) and 48 h (yeasts).” left out, “The assay was repeated thrice.” left out

bacteria = test: Broth microdilution, bacterial strains (panel summary); assay type: cell-based; conditions: range over the bacterial strains
Method: as §1
as §2, with “bacteria. […]” for “bacteria.”
MICs were determined by broth micro dilution. […] MICs were assessed visually after the corresponding incubation period and were taken as the lowest sample concentration at which there was no growth or virtually no growth. […]

[9] = Lodderomyces parapsilosis, read-out: MIC
[10] = Lodderomyces parapsilosis, read-out: MFC

| Compound | Gallic acid equivalent antioxidant capacity (TEAC) [1] [µg/mL] | MFC/MIC [2] | MIC ([2]; ATCC9002, 37°C, read-out: MIC) [µg/mL] | MBC [3] [µg/mL] | MBC/MIC [3] | MIC [3] [µg/mL] | MBC [4] [µg/mL] | MBC/MIC [4] | MIC [4] [µg/mL] | MBC/MIC [5] | MBC [5] [µg/mL] | MIC [5] [µg/mL] | MFC/MIC (Candida parapsilosis) | MIC (Candida parapsilosis; [9]) [µg/mL] | MFC/MIC [6] | MIC ([6]; IP90526, 37°C, read-out: MIC) [µg/mL] | MBC (Staphylococcus aureus) [µg/mL] | MIC (Staphylococcus aureus) [µg/mL] | studied microorganisms on which inhibitory effects were noted [7] | EC50, concentration scavenging 50% of DPPH radical [8] [µg/mL] | also measured |
| --- | --- | --- | --- | --- | --- | --- | --- | --- | --- | --- | --- | --- | --- | --- | --- | --- | --- | --- | --- | --- | --- |
| O=c1c(O[C@@H]2O[C@H](CO)[C@H](O)[C@H](O)[C@H]2O)c(-c2ccc(O)c(O)c2)oc2cc(O)cc(O)c12 [Compound 4, quercetin 3-O-β-D-galactopyranoside] | 72.95 | 1 | 256 (≈ 551 µM) | 64 (≈ 138 µM) | 2 | 32 (≈ 68.9 µM) | 128 (≈ 276 µM) | 1 | 128 (≈ 276 µM) | 2 | 64 (≈ 138 µM) | 32 (≈ 68.9 µM) | 2 | 128 (≈ 276 µM) | 1 | 128 (≈ 276 µM) | 128 (≈ 276 µM) | 128 (≈ 276 µM) | 7/7 | 13.44 | MFC ([2]; ATCC9002, read-out: MFC): 256 µg/mL (≈ 551 µM); MFC (Candida parapsilosis; [10]): 256 µg/mL (≈ 551 µM); MFC ([6]; IP90526, read-out: MFC): 128 µg/mL (≈ 276 µM); MBC/MIC (Staphylococcus aureus): 1; activity against all the microbial strains (in words) [7]: active against all the microbial strains |
| O=C(O)[C@H]1O[C@@H](Oc2cc(O)c3c(=O)cc(-c4ccc(O)cc4)oc3c2)[C@H](O)[C@@H](O)[C@@H]1O [Compound 3, apigenin-7-O-β-D-glucuronopyranoside] | – | – | > 256 | 256 (≈ 574 µM) | 1 | 256 (≈ 574 µM) | – | – | > 256 | 1 | 128 (≈ 287 µM) | 128 (≈ 287 µM) | 2 | 64 (≈ 143 µM) | 1 | 128 (≈ 287 µM) | – | > 256 | 4/7 | 29.16 | MFC (Candida parapsilosis; [10]): 128 µg/mL (≈ 287 µM); MFC ([6]; IP90526, read-out: MFC): 128 µg/mL (≈ 287 µM) |
| O=c1c(O)c(-c2ccc(O)c(O)c2)oc2cc(O)cc(O)c12 [Compound 2, quercetin] | 89.86 | 1 | 128 (≈ 424 µM) | 64 (≈ 212 µM) | 1 | 64 (≈ 212 µM) | 256 (≈ 847 µM) | 2 | 128 (≈ 424 µM) | 1 | 64 (≈ 212 µM) | 64 (≈ 212 µM) | 1 | 64 (≈ 212 µM) | 1 | 64 (≈ 212 µM) | > 256 | 256 (≈ 847 µM) | 7/7 | 5.08 | MFC ([2]; ATCC9002, read-out: MFC): 128 µg/mL (≈ 424 µM); MFC (Candida parapsilosis; [10]): 64 µg/mL (≈ 212 µM); MFC ([6]; IP90526, read-out: MFC): 64 µg/mL (≈ 212 µM); activity against all the microbial strains (in words) [7]: active against all the microbial strains; MIC (range over fungi) (fungi): 64 to 128 µg/mL |
| O=C1O[C@H]([C@@H](O)CO)C(O)=C1O [vitamin C, L-ascorbic acid, reference compound] | – | – | – | – | – | – | – | – | – | – | – | – | – | – | – | – | – | – | – | 4.72 | – |
| O=C(N[C@H](CO)[C@H](O)c1ccc([N+](=O)[O-])cc1)C(Cl)Cl [chloramphenicol, Chloramphenicol, reference compound] | – | – | – | 16 (≈ 49.5 µM) | 1 | 16 (≈ 49.5 µM) | 64 (≈ 198 µM) | 1 | 64 (≈ 198 µM) | 1 | 64 (≈ 198 µM) | 64 (≈ 198 µM) | – | – | – | – | 64 (≈ 198 µM) | 64 (≈ 198 µM) | – | – | MIC (range over bacteria) (bacteria): 16 to 64 µg/mL; MBC/MIC (Staphylococcus aureus): 1 |
| C[C@@H]1[C@H](O)[C@@H](C)/C=C/C=C/CC/C=C/C=C/C=C/C=C/C(O[C@H]2O[C@H](C)[C@@H](O)[C@H](N)[C@@H]2O)CC2O[C@](O)(CC(O)C(O)CCC(O)CC(O)CC(O)CC(=O)O[C@H]1C)CC(O)C2C(=O)O (stereo partly drawn) [nystatin, reference compound] | – | 1 | – | – | – | – | – | – | – | – | – | – | 1 | – | 2 | – | – | – | – | – | MFC [2]: 128 µg/mL (≈ 138 µM); MIC ([2]; 37°C): 128 µg/mL (≈ 138 µM); MFC (Candida parapsilosis): 256 µg/mL (≈ 276 µM); MIC (Candida parapsilosis): 256 µg/mL (≈ 276 µM); MFC [6]: 256 µg/mL (≈ 276 µM); MIC ([6]; 37°C): 128 µg/mL (≈ 138 µM); MIC (range over fungi) (fungi): 128 to 256 µg/mL |
| C[C@@H]1O[C@@H](OC[C@H]2O[C@@H](Oc3c(-c4ccc(O)c(O)c4)oc4cc(O)cc(O)c4c3=O)[C@H](O)[C@@H](O)[C@@H]2O)[C@H](O)[C@H](O)[C@H]1O [Compound 5, quercetin 3-O-α-L-rhamnopyranosyl (1 → 6) β-D-glucopyranoside] | 78.35 | – | > 256 | 16 (≈ 26.2 µM) | 2 | 8 (≈ 13.1 µM) | 64 (≈ 105 µM) | 1 | 64 (≈ 105 µM) | 1 | 32 (≈ 52.4 µM) | 32 (≈ 52.4 µM) | – | > 256 | – | > 256 | 128 (≈ 210 µM) | 64 (≈ 105 µM) | 4/7 | 9.63 | MIC (range over bacteria) (bacteria): 8 to 64 µg/mL; MBC/MIC (Staphylococcus aureus): 2; activity against fungal/yeast strains (in words) (fungi; fungal strains): inactive |
